Results on 2 compounds are retold here after patent publication US20070292440A1, “CD154 blockade therapy for pancreatic islet tissue transplantation” (priority 1997, published 2007).

“And” between values parts separate entries of the source, which are not always exact repeats. Identical values can stand only once.

The test system of series [1] is islet allografts in pancreatectomized baboons. The series can be described thus: Baboon model of islet cell transplantation (ICT) for pancreatectomy-induced diabetes. Type of series: in vivo, Baboon (Papio hamadryas). As to the method:
Identification of donor-recipient pairs. Peripheral blood mononuclear cells (PBMC) from 10 potential recipients (Baboons, Papio hamadryas, male and female, 1-2 years of age, approximately 4.0 kg) from the Mannheimer facility (Homestead, Fla.) were used as responders against PBMC from 11 male donors (over 2 years of age, purchased from the Southwest Foundation in Texas) in a one way mixed leukocyte culture (MLC). The baboon MLC was performed via standardized methods for human MLC. […] The donors were of a sufficient size that enough islets and bone marrow were obtained from 1 donor to allow for transplantation into 2 recipients. […] An attempt was made to choose two recipients with similar MLC reactivity to the designated donor, and donor-recipient pairs with varying degrees of alloreactivity were chosen.
Islet/bone marrow preparation and administration.
For studies on enhancing tolerance, vertebral body was harvested from the pancreas donor and processed to obtain donor bone marrow cells (DBMC) generally according to routine modifications of methods for processing of human vertebral bodies. For recipients of donor bone marrow, infusions were administered on days 5 and II post ICT. A total dose of 10^9 nucleated cells per kg recipient body weight was given.
Pancreatectomy and ICT. […] The number of IEQ was determined immediately prior to transplantation. Total pancreatectomy was performed according to established surgical techniques. After completion of the total pancreatectomy, a 20G angiocatheter was inserted into one of the mesenteric vessel tributaries of the portal vein, and ICT was accomplished by gravity infusion of the islet preparation over a 10 min period.
Immunosuppression and post-operative care. FK506 (tacrolimus) was chosen as the immunosuppressant, as this drug is currently utilized in human ICT. FK506 administration commenced at 5 days prior to ICT. A dosage of 0.1 mg/kg/day, i.m. was administered to recipient baboons. Drug levels were monitored daily and dosage was adjusted to maintain trough levels of approximately 15 ng/ml.
For the first post-operative day (study day 1, or POD 1), the baboons were given intravenous fluids. The animals were subsequently fed a diet containing 60 g of carbohydrate per day, with 45 g of monkey biscuits (supplemented with viokase) and 15 g of fruit.
Monitoring. Fasting and post-prandial blood glucose (FG and PPG, respectively) were monitored via heel stick and blood testing with a Glucometer Elite, and at least once weekly, a blood sample was drawn to obtain plasma for testing of FG levels with a Beckman glucose analyzer. In general a blood sample was also obtained to confirm unusually high readings. […] At approximately 3 months post-transplant, testing was decreased to every other week. The blood samples were used for phenotyping of peripheral blood to assess leukocyte subsets and determination of CBC and chemistries, 5c8 and anti-5c8 levels, insulin and C-peptide levels, and chimerism. Blood was drawn periodically for retesting of MLC reactivity to donor and 3rd party antigens.

Series [2] deals with islet allograft function (glucose metabolism) in baboons. Briefly: Intravenous glucose tolerance testing (IVGTT) of baboon islet allograft recipients. Type of series: in vivo, Baboon (Papio hamadryas). As to the method: Intravenous Glucose Tolerance Testing (IVGTT). It has been previously shown that in vivo islet-cell function tests give an accurate reflection of changes in β cell mass. (McCulloch et al., Diabetes 40: 673-679, 1991). Intravenous glucose tolerance tests were carried out after a 16- to 18-h overnight fast, as previously described (Lehmann et al., J. Med. Primatol. 26: 312-321, 1997). In brief, blood samples were collected at −10, −5, and 0 min. Then 0.5 g glucose per kg of body weight in a 50% glucose solution was injected over 20 seconds into the saphenous vein. 1.5 ml samples were collected from the contralateral femoral artery at 1, 3, 5, 7, 10, 15, 20, 25, 30 min post injection. Thus, a total of 12 blood samples were withdrawn over a […] period. The samples were drawn into glass tubes containing 0.05 ml 15% fluid EDTA and 0.2 ml trasylol (500 K.I.U. aprotinin/ml blood), placed on ice, and centrifuged within 10 minn. Plasma was then frozen at −80° C. and assayed later for glucose, immunoreactive insulin, and glucagon.
Statistical analysis and calculations. Results are set forth as means ±SEM. The glucose disappearance constant (Kg) was calculated from the IVGTT as the slope of the decline of the loge (In) plasma glucose between 10 and 30 min. after the glucose injection, multiplied by 100. The acute insulin response to glucose (AIRG) was calculated as the incremental area under the insulin curve (AUC) between 1-10 min after the IV glucose injection. The incremental responses (AUCGlucose, AUCInsulin) were calculated by means of the trapezoidal rule with subtraction of the basal values from 1 to 30 minutes, Data were analyzed with Statistica for Windows software (Version 5.0, 1997. Statsoft Inc., Tulsa, Okla., USA).

Series [3] has as its system islet allografts in pancreatectomized diabetic rhesus monkeys. Briefly: Rhesus monkey model of ICT for pancreatectomy-induced diabetes. To be noted: induction days -1, 0, 3, 10 + monthly maintenance, monotherapy. The class given is in vivo. The procedure: Unless specified, all procedures were generally as described above for the baboon model studies.
Animal procedures. SPF rhesus monkeys, 2-7 years of age, are readily available from COVANCE (Alice, Tex.) or the Mannheimer Foundation, Inc. (Homestead, Fla.) or similar vendors. Upon admission, all monkeys are examined to determine their general health, physical condition, and psychological status. All surgical procedures are carried under aseptic conditions. Animals are fasted for 12-18 hours before surgery and will be pre-anesthetized with i.m. ketamine (10 mg/kg) and atropine (0.04 mg/kg). Once the animal is sedated, an endotracheal tube and an i.v. catheter are promptly installed. The endotracheal tube is used to protect the airway and provide easy access for emergency drugs. The animals are anesthetized with an isoflurane and oxygen combination. Normal saline solution for injection is infused through the catheter throughout the entire ICT procedure at a rate of 10 ml/kg/hour.
A midline incision is made to gain access to the abdominal organs. For both donor and recipient animals, a total pancreatectomy is performed with preservation of the duodenum. […]
Monitoring. […] Fasting blood glucose (FG) levels are determined by using a lancet to prick the heel, to obtain a small drop of blood for placement on a glucometer strip. […]

On to “Anti-CD154: humanized MAb having the antigen-specific binding properties of MAb 5c8; CD154 (CD40L) blocking agent”, for which the “islet allograft survival versus control or FK506 treated animals” value in series [1] (4 out of 5 baboons) is “extended islet allograft survival”. Moreover, the “Duration (in PODs) of Insulin Independence” value in series [1] (Baboon, Induction + Anti-Rejection regimen, animal received a reduced dose of 5c8) came to 8 PODs. For the same compound, the “POD until which graft was maintained after treatment for rejection” value in series [1] (Baboon, induction 20 mg/kg days -1, 3, 10 + monthly maintenance from POD 28, bone marrow infusions PODs 5 and 11, listed as 5C8) is 162 POD and 124 POD. Further, the “graft survival of functioning islet allografts” value in series [1] (Baboon, other animals in the study, range of survivals, listed as hu5c8) was > 125 days and > 220 days. Also, the “adverse effect on insulin secretion or overall insulin sensitivity” value in series [2] (baboon studies) is on record as “no adverse effect”. Moreover, in series [2] (baboons on maintenance therapy, follow-up 16 weeks), the “FPIS (first phase insulin secretion) after islet transplantation” value is “well preserved”. In addition, the “Kg values (glucose disappearance constant) in repeated IVGTT” value is listed as “decline” in series [2] (baboons treated at the time of rejection, after 8 postoperative weeks) and “Stable values” in series [2] (baboons treated with maintenance doses). For the same compound, the “islet allograft function and rejection episodes” value in series [3] is given as “functional islet allografts are maintained without the occurrence of rejection episodes”.

For `C=CC[C@@H]1/C=C(\C)C[C@H](C)C[C@H](OC)[C@H]2O[C@@](O)(C(=O)C(=O)N3CCCC[C@H]3C(=O)O[C@H](/C(C)=C/[C@@H]3CC[C@@H](O)[C@H](OC)C3)[C@H](C)[C@@H](O)CC1=O)[C@H](C)C[C@@H]2OC` [FK506, tacrolimus, reference compound], the “day of islet allograft rejection” value turned out to be 10 day in series [1] (Baboon, FK506 alone); 10 day in series [1] (Baboon, FK506 in combination with stem cell selected marrow); 8 day in series [1] (Baboon, FK506 in combination with whole bone marrow).
